In patent US10577363B2, “Substituted piperidine compounds” (EPIZYME, INC., priority 2014, dated 2020):

Target: SMYD3 (Homo sapiens (Human), UniProt Q9H7B4)
Experiment: SMYD3 biochemical assay (SPA, 3H-SAM methylation of MEKK2 protein substrate)
Settings: read-out: SMYD3 Biochem IC50 (μM)*
Method in brief: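 SPA methyltransferase format: tag-cleaved human SMYD3, insect-cell GST-MEKK2 protein substrate, 3H-SAM donor, 30 min RT enzyme–compound preincubation, 100 uM cold SAM quench.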

Point of comparison: `CCS(=O)(=O)N1CC[C@H](NC(=O)c2cc(C3CC3)on2)C[C@@H]1C` [compound 260, 5-cyclopropyl-N-((2S,4S)-1-(ethylsulfonyl)-2-methylpiperidin-4-yl)isoxazole-3-carboxamide], IC50 2.45 µM. Against it:
- COCCS(=O)(=O)N1CC[C@@H](NC(=O)c2cc(C3CC3)on2)C[C@@H]1C [compound 248, 5-cyclopropyl-N-((2S,4R)-1-((2-methoxyethyl)sulfonyl)-2-methylpiperidin-4-yl)isoxazole-3-carboxamide] — higher, > 10 µM
- CCCS(=O)(=O)N1CC[C@@H](NC(=O)c2cc(C3CC3)on2)C[C@H]1C [compound 249, 5-cyclopropyl-N-((2R,4R)-2-methyl-1-(propylsulfonyl)piperidin-4-yl)isoxazole-3-carboxamide] — higher, > 10 µM
- CC(C)CS(=O)(=O)N1CC[C@@H](NC(=O)c2cc(C3CC3)on2)C[C@H]1C [compound 250, 5-cyclopropyl-N-((2R,4R)-1-(isobutylsulfonyl)-2-methylpiperidin-4-yl)isoxazole-3-carboxamide] — 3.9-fold higher, 9.45 µM
- CCCCS(=O)(=O)N1CC[C@@H](NC(=O)c2cc(C3CC3)on2)C[C@H]1C [compound 251, N-((2R,4R)-1-(butylsulfonyl)-2-methylpiperidin-4-yl)-5-cyclopropylisoxazole-3-carboxamide] — 2.5-fold higher, 6.15 µM
- CCOC(=O)CS(=O)(=O)N1CC[C@@H](NC(=O)c2cc(C3CC3)on2)C[C@H]1C [compound 252, ethyl 2-(((2R,4R)-4-(5-cyclopropylisoxazole-3-carboxamido)-2-methylpiperidin-1-yl)sulfonyl)acetate] — higher, > 10 µM
- C[C@@H]1C[C@H](NC(=O)c2cc(C3CC3)on2)CCN1S(=O)(=O)c1ccc(Cl)nc1 [compound 253, N-((2R,4R)-1-((6-chloropyridin-3-yl)sulfonyl)-2-methylpiperidin-4-yl)-5-cyclopropylisoxazole-3-carboxamide] — higher, > 10 µM
- C[C@@H]1C[C@H](NC(=O)c2cc(C3CC3)on2)CCN1S(=O)(=O)N1CCCC1 [compound 254, 5-cyclopropyl-N-((2R,4R)-2-methyl-1-(pyrrolidin-1-ylsulfonyl)piperidin-4-yl)isoxazole-3-carboxamide] — 1.7-fold higher, 4.14 µM
- C[C@@H]1C[C@H](NC(=O)c2cc(C3CC3)on2)CCN1S(=O)(=O)N1CCN(C)CC1 [compound 255, 5-cyclopropyl-N-((2R,4R)-2-methyl-1-((4-methylpiperazin-1-yl)sulfonyl)piperidin-4-yl)isoxazole-3-carboxamide] — 2-fold lower, 1.2 µM
- COC(=O)CCS(=O)(=O)N1CC[C@@H](NC(=O)c2cc(C3CC3)on2)C[C@H]1C [compound 256, methyl 3-(((2R,4R)-4-(5-cyclopropylisoxazole-3-carboxamido)-2-methylpiperidin-1-yl)sulfonyl)propanoate] — higher, > 10 µM
- COCCS(=O)(=O)N1CC[C@@H](NC(=O)c2cc(C3CC3)on2)C[C@H]1C [compound 257, 5-cyclopropyl-N-((2R,4R)-1-((2-methoxyethyl)sulfonyl)-2-methylpiperidin-4-yl)isoxazole-3-carboxamide] — 3.8-fold higher, 9.29 µM
- C[C@@H]1C[C@H](NC(=O)c2cc(C3CC3)on2)CCN1S(=O)(=O)CCC(F)(F)F [compound 258, 5-cyclopropyl-N-((2R,4R)-2-methyl-1-((3,3,3-trifluoropropyl)sulfonyl)piperidin-4-yl)isoxazole-3-carboxamide] — 3.4-fold higher, 8.37 µM
- COCCCS(=O)(=O)N1CC[C@@H](NC(=O)c2cc(C3CC3)on2)C[C@H]1C [compound 259, 5-cyclopropyl-N-((2R,4R)-1-((3-methoxypropyl)sulfonyl)-2-methylpiperidin-4-yl)isoxazole-3-carboxamide] — higher, > 10 µM
- CCS(=O)(=O)N1CC[C@@H](NC(=O)c2cc(C3CC3)on2)C[C@H]1C [compound 261, 5-cyclopropyl-N-((2R,4R)-1-(ethylsulfonyl)-2-methylpiperidin-4-yl)isoxazole-3-carboxamide] — higher, > 10 µM
